Key:
Assay type in all cases: physicochemical
[1] = Induction of ROS generation in MeOH/PBS solution by AUR-based fluorescence assay; conditions: buffer
[2] = Induction of ROS generation in RPMI-1640 cell culture media/DMSO/cremophor solution by AUR-based fluorescence assay
[3] = Induction of ROS generation in water/cremophor/DMF solution by SOSG-based fluorescence assay; conditions: buffer
[4] = Induction of ROS generation in water/cremophor/DMF solution by AUR-based fluorescence assay; conditions: buffer
[5] = Induction of ROS generation in RPMI-1640 cell culture media/DMSO/cremophor solution by SOSG-based fluorescence assay
[6] = Induction of ROS generation in MeOH/PBS solution by SOSG-based fluorescence assay; conditions: buffer

Measured: Activity

CC[C@H]1c2cc3[nH]c4c(c3C)C(=O)[C@H](C(=O)OC)c4c3nc(cc4[nH]c(cc(n2)[C@@H]1C)c(C(C)=O)c4C)[C@@H](C)[C@@H]3CCC(=O)NCCS(=O)(=O)O
Active: all assays above

CC[C@H]1c2cc3[nH]c(c(CC(=O)OC)c4nc(cc5[nH]c(cc(n2)[C@@H]1C)c(C(C)=O)c5C)[C@@H](C)[C@@H]4CCC(=O)NCCS(=O)(=O)O)c(C(=O)NCCS(=O)(=O)O)c3C
Active: all assays above

CC[C@H]1c2cc3[nH]c4c(c3C)C(=O)[C@H](C(=O)OC)c4c3nc(cc4[nH]c(cc(n2)[C@@H]1C)c(C(C)=O)c4C)[C@@H](C)[C@@H]3CCC(=O)OCC[N+](C)(C)C
Active: all assays above

CC[C@H]1c2cc3[nH]c(c(CC(=O)OC)c4nc(cc5[nH]c(cc(n2)[C@@H]1C)c(C(C)=O)c5C)[C@@H](C)[C@@H]4CCC(=O)OCC[N+](C)(C)C)c(C(=O)NCCS(=O)(=O)O)c3C
Active: all assays above

CC[C@H]1c2cc3[nH]c4c(c3C)C(=O)[C@H](C(=O)OC)c4c3nc(cc4[nH]c(cc(n2)[C@@H]1C)c(C(C)=O)c4C)[C@@H](C)[C@@H]3CCC(=O)OC
Active: all assays above

CC[C@H]1c2cc3[nH]c(c(CC(=O)OC)c4nc(cc5[nH]c(cc(n2)[C@@H]1C)c(C(C)=O)c5C)[C@@H](C)[C@@H]4CCC(=O)OC)c(C(=O)NCCS(=O)(=O)O)c3C
Active: all assays above

CC[C@H]1c2cc3[nH]c4c(c3C)C(=O)[C@H](C(=O)OC)c4c3nc(cc4[nH]c(cc(n2)[C@@H]1C)c(C(C)=O)c4C)[C@@H](C)[C@@H]3CCC(=O)O
Active: all assays above

CC[C@H]1c2cc3[nH]c(c(CC(=O)OC)c4nc(cc5[nH]c(cc(n2)[C@@H]1C)c(C(C)=O)c5C)[C@@H](C)[C@@H]4CCC(=O)O)c(C(=O)NCCS(=O)(=O)O)c3C
Active: all assays above
